Measured values published in US20230242830A1 (priority 2020, published 2023).

Key:
[1] = molecular target: T1, BuChE from equine serum (eqBuChE) (Equus caballus, UniProt P81908); experiment: butyrylcholinesterase inhibition, Ellman spectrometric method; format: biochemical
T1 construct: The BuChE freeze-dried from equine serum (eqBuChE, Sigma Aldrich); purchased Sigma Aldrich; host or cells: equine serum (natural source)
Experimental: (§1) In the extent that the toxic activity of TCP especially involves its action on cholinesterases, the effect of the compounds used according to the invention, as well as comparative compounds, on two cholinesterases was studied. The concentration values of each compound required to inhibit 50% of the activity of two cholinesterases were measured. The higher the 50% inhibitory concentration (IC50), the less the compound is neurotoxic since it has a weaker action on the cholinesterase.
(§2) The inhibitory capacity of the compounds on the acetylcholinesterase (AChE) and butyrylcholinesterase (BuChE) biological activity was assessed using the spectrometric method of Ellman (Ellman et al., Biochem. Pharm. 1961, 7, 88-95).
(§3) The acetylthiocholine and butyrylthiocholine iodide, and 5,5-dithiobis (2-nitrobenzoic) acid (DTNB) were purchased from Sigma Aldrich (Steinheim, Germany).
(§4) The BuChE freeze-dried from equine serum (eqBuChE, Sigma Aldrich) was dissolved in 0.1 M phosphate buffer (pH 7.4) to obtain enzyme stock solutions with an enzymatic activity of 2.5 units/mL. The human erythrocyte AChE (hAChE, aqueous buffer solution, ≥500 units/mg of protein (BCA), Sigma Aldrich) was diluted in 20 mM HEPES buffer, pH 8, with 0.1% Triton X-100 to obtain enzymatic solution with an enzymatic activity of 0.25 unit/mL.
(§5) In the procedure, 100 µL of 0.3 mM DTNB dissolved in phosphate buffer, pH 7.4, were added in 96-well plates, followed by 50 µL solution of the test compound and 50 µL enzyme (final 0.05 U). After 5 minutes of pre-incubation at 25° C., the reaction was initiated by injecting 50 µL of 0.1 mM acetyl or butyryl thiocholine iodide solution. The acetyl or butyryl thiocholine hydrolysis was followed by the formation of yellow 5-thio 2-nitrobenzoate anion as the product of the reaction of DTNB with the thiocholine released by the enzymatic hydrolysis of the acetyl or butyryl thiocholine, at a wavelength of 412 nm, using a microplate reader (Synergy 2, Biotek, Colmar, France). The compounds to be tested were dissolved to 5×10^-3 M in analytical grade DMSO. Donepezil or tacrine were used as reference standards. The absorption increase rate at 412 nm was determined 4 minutes after the addition of the acetyl or butyryl thiocholine iodide solution. The tests were carried out with a blank containing all the compounds except the acetyl or butyryl thiocholine in order to take into account non-enzymatic reactions.
(§6) The percentage of inhibition due to the presence of the test compounds was calculated using the following expression: […]
(§7) wherein vi is the rate calculated in the presence of the inhibitor, and v0 is the enzymatic activity.
(§8) IC50 values were graphically determined by plotting the percentage of inhibition as a function of the logarithm of six inhibitor concentrations in the test solution using the GraphPadPrism software (version 6.01, GraphPad Software, La Jolla, Calif., USA). All the experiments were carried out in n=3.

[2] = molecular target: T2, human erythrocyte AChE (hAChE) (Homo sapiens, UniProt P22303); experiment: acetylcholinesterase inhibition, Ellman spectrometric method; format: biochemical
T2 construct: The human erythrocyte AChE (hAChE, aqueous buffer solution); purchased Sigma Aldrich; host or cells: human erythrocytes (natural source)
T2 sequence (P22303 32-617 isoform P22303-2 limits assumed): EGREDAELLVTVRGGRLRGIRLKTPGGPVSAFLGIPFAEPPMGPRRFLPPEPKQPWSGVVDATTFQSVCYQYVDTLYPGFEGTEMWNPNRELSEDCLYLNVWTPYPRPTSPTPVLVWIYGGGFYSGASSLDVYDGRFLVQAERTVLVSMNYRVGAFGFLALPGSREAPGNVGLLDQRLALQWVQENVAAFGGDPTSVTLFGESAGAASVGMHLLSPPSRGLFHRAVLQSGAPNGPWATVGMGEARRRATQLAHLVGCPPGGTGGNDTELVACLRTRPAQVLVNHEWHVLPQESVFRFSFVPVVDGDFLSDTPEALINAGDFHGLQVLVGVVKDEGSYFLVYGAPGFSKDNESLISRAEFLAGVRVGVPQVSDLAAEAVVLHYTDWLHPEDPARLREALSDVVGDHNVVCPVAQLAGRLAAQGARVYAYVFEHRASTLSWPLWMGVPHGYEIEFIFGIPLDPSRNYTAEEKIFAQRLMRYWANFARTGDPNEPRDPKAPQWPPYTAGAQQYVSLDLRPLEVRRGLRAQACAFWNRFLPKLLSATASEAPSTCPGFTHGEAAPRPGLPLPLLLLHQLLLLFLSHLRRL
Experimental: as §1, §2, §3, §4, §5, §6, §7, §8

T1 sequence (P81908 whole entry): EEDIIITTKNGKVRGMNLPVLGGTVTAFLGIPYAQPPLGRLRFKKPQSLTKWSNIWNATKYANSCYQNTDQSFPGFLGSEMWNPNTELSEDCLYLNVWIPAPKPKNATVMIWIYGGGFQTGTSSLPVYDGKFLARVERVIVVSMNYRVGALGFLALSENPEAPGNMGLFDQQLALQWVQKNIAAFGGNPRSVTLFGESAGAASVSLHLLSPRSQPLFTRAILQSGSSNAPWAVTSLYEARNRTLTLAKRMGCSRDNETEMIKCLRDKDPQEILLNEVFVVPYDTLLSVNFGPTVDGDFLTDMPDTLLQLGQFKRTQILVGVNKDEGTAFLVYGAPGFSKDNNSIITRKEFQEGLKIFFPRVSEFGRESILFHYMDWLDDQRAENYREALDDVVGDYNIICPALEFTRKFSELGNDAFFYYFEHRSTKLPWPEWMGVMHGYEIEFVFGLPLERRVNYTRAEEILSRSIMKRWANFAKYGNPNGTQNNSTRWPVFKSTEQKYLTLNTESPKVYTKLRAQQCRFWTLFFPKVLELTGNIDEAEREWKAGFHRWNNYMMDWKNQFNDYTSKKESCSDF

Compound	IC50 [1] [µM]	IC50 [2] [µM]	inhibition on butyrylcholinesterase / lC50 for eqBuChE, in words [1]	lC50 eqBuChE ([1]; Table 1, n=3) [mg/L]	lC50 hAChE ([2]; Table 1, n=3) [mq/L]
O=P(Oc1ccccc1)(Oc1ccccc1)Oc1ccc(OP(=O)(Oc2ccccc2)Oc2ccccc2)c2ccccc12 [Compound 14, 1,4-dihydroxynaphthalene bis(diphenylphosphate)]	127	27.4	–	–	–
O=P(Oc1ccccc1)(Oc1ccccc1)Oc1ccc(OP(=O)(Oc2ccccc2)Oc2ccccc2)c(-c2ccccc2)c1 [Compound 11, phenylhydroquinone bis(diphenylphosphate)]	25.8	35.5	–	–	–
O=P(Oc1ccccc1)(Oc1ccccc1)Oc1cc(OP(=O)(Oc2ccccc2)Oc2ccccc2)c2ccccc2c1 [X, 1,3-dihydroxynaphthalene bis(diphenylphosphate), reference compound]	7.21	26.4	–	–	–
O=P(Oc1ccccc1)(Oc1ccccc1)Oc1ccc(OP(=O)(Oc2ccccc2)Oc2ccccc2)c(Cl)c1 [Y, 2-chlorohydroquinone bis(diphenylphosphate), reference compound]	1	41.1	–	–	–
O=P(Oc1ccccc1)(Oc1ccccc1)Oc1ccc(C2(c3ccc(OP(=O)(Oc4ccccc4)Oc4ccccc4)cc3)c3ccccc3-c3ccccc32)cc1 [Compound 21, 9,9-bis(4-hydroxyphenyl)fluorene bis(diphenylphosphate)]	106	29.6	–	–	–
CC(C)(C)c1ccc(OP(=O)(Oc2ccc(C(C)(C)C)cc2)Oc2ccc(C(C)(C)C)cc2)cc1 [Compound I2, Tri(p-tert-butylphenyl)phosphate, reference compound]	–	–	reduced inhibition	–	–
CC(c1ccc(OP(=O)(Oc2ccccc2)Oc2ccccc2)cc1)(c1ccc(OP(=O)(Oc2ccccc2)Oc2ccccc2)cc1)c1ccc(OP(=O)(Oc2ccccc2)Oc2ccccc2)cc1 [Compound 23, 1,1,1-Tris(4-hydroxyphenyl)ethane tris(diphenylphosphate)]	70.9	19.8	–	–	–
O=C(c1ccc(OP(=O)(Oc2ccccc2)Oc2ccccc2)cc1)c1ccc(OP(=O)(Oc2ccccc2)Oc2ccccc2)cc1 [Compound 16, 4,4′-dihydroxybenzophenone bis(diphenylphosphate)]	164	39.8	–	–	–
CC(=O)c1cc(OP(=O)(Oc2ccccc2)Oc2ccccc2)ccc1OP(=O)(Oc1ccccc1)Oc1ccccc1 [Z, (2,5-dihydroxy)1-acetophenone bis(diphenylphosphate), reference compound]	0.114	29.8	–	–	–
O=P(Oc1ccccc1)(Oc1ccccc1)Oc1ccc(C(c2ccc(OP(=O)(Oc3ccccc3)Oc3ccccc3)cc2)(C(F)(F)F)C(F)(F)F)cc1 [Compound 18]	141	34	–	–	–
dimer diol (C34-36) bis(diphenylphosphate) [Compound 22]	–	–	–	88.3	15.6
O=P(Oc1ccccc1)(Oc1ccccc1)Oc1ccc2ccc(OP(=O)(Oc3ccccc3)Oc3ccccc3)cc2c1 [Compound 15, 2,7-dihydroxynaphthalene bis(diphenylphosphate)]	90.1	28.8	–	–	–
CC(c1ccccc1)(c1ccc(OP(=O)(Oc2ccccc2)Oc2ccccc2)cc1)c1ccc(OP(=O)(Oc2ccccc2)Oc2ccccc2)cc1 [Compound 19, 4,4′-(α-methylbenzylidene)bisphenol bis(diphenylphosphate)]	147	46	–	–	–
CC(C)(C)c1cc(OP(=O)(Oc2ccccc2)Oc2ccccc2)ccc1OP(=O)(Oc1ccccc1)Oc1ccccc1 [Compound 12, tert-butyl hydroquinone bis(diphenylphosphate)]	104	23.8	–	–	–
O=P(Oc1ccccc1)(Oc1ccccc1)Oc1ccc(C2(c3ccc(OP(=O)(Oc4ccccc4)Oc4ccccc4)cc3)CCCCC2)cc1 [Compound 20, 1,1-bis-(4-hydroxyphenyl)cyclohexane bis(diphenylphosphate)]	399	35.5	–	–	–
O=P(Oc1ccccc1)(Oc1ccccc1)Oc1ccc(S(=O)(=O)c2ccc(OP(=O)(Oc3ccccc3)Oc3ccccc3)cc2)cc1 [Compound 17, bis(4-dihydroxyphenyl)sulfone bis(diphenylphosphate)]	96.4	30.2	–	–	–
CC(C)(C)c1cc(OP(=O)(Oc2ccccc2)Oc2ccccc2)c(C(C)(C)C)cc1OP(=O)(Oc1ccccc1)Oc1ccccc1 [Compound 13, 2,5-di-tert-butyl hydroquinone bis(diphenylphosphate)]	111	27.1	–	–	–
